Source: patent US20230085307A1, “PYRIDAZINONE COMPOUND AND HERBICIDE” (NISSAN CHEMICAL CORPORATION, priority 2019, published 2023)

Key:
blackgrass [1] = test: Test Example 4: herbicidal effect by soil treatment (Table 19, symbol J); format: in vivo, blackgrass (Alopecurus myosuroides); settings: amount of applied herbicide 320 g/ha
Summary of the method: (§1)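 Seeds were sown in sterilized diluvial soil and covered with about 1.5 cm of soil. An emulsion formulation diluted with water to a predetermined herbicide amount was sprayed evenly onto the soil surface. Plants grew in a greenhouse at 25° C. to 30° C., and the effect was scored three weeks after application using criteria from an earlier test.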

persian speedwell [2] = test: Test Example 5: herbicidal effect by foliage application, plastic box (Table 20, symbol R); format: in vivo, Persian speedwell (Veronica persica); settings: foliage application, 320 g/ha, three weeks after application
Summary of the method: (§2)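 Plants sown in sterilized diluvial soil and grown 14 days in a greenhouse at 25° C to 30° C, then sprayed on the foliage with the compound's emulsion diluted in water to a predetermined herbicide amount. Injury to weeds and crops scored three weeks after application on a visual rating scale.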

Italian ryegrass [3] = test: Test Example 5: herbicidal effect by foliage application, plastic box (Table 20, symbol K); format: in vivo, Italian ryegrass (Lolium multiflorum); settings: foliage application, 320 g/ha, three weeks after application
Summary of the method: as §2

chickweed [4] = test: Test Example 5: herbicidal effect by foliage application, plastic box (Table 20, symbol P); format: in vivo, common chickweed (Stellaria media); settings: foliage application, 320 g/ha, three weeks after application
Summary of the method: as §2

barnyard grass [5] = test: Test Example 3: herbicidal effect by foliage application, Wagner pot (Table 18, symbol H); format: in vivo, barnyard grass (Echinochloa crus-galli); settings: 320 g/ha
Summary of the method: (§3)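 Plants were sown in alluvial soil held under 0.1–0.5 cm standing water and grown 14 days in a greenhouse at 25–30 °C. An emulsifiable formulation, water-diluted to the set dose, was then sprayed onto the foliage, and effects were scored three weeks later using previously defined criteria.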

wild oat [6] = test: Test Example 5: herbicidal effect by foliage application, plastic box (Table 20, symbol I); format: in vivo, wild oat (Avena fatua); settings: foliage application, 320 g/ha, three weeks after application
Summary of the method: as §2

southern crabgrass [7] = test: Test Example 5: herbicidal effect by foliage application, plastic box (Table 20, symbol F); format: in vivo, southern crabgrass (Digitaria ciliaris); settings: foliage application, 320 g/ha, three weeks after application
Summary of the method: as §2

green foxtail [8] = test: Test Example 4: herbicidal effect by soil treatment (Table 19, symbol G); format: in vivo, green foxtail (Setaria viridis); settings: amount of applied herbicide 320 g/ha
Summary of the method: as §1

green foxtail [9] = test: Test Example 5: herbicidal effect by foliage application, plastic box (Table 20, symbol G); format: in vivo, green foxtail (Setaria viridis); settings: foliage application, 320 g/ha, three weeks after application
Summary of the method: as §2

southern crabgrass [10] = test: Test Example 4: herbicidal effect by soil treatment (Table 19, symbol F); format: in vivo, southern crabgrass (Digitaria ciliaris); settings: amount of applied herbicide 320 g/ha
Summary of the method: as §1

barnyard grass [11] = test: Test Example 4: herbicidal effect by soil treatment (Table 19, symbol H); format: in vivo, barnyard grass (Echinochloa crus-galli); settings: amount of applied herbicide 320 g/ha
Summary of the method: as §1

redroot pigweed [12] = test: Test Example 4: herbicidal effect by soil treatment (Table 19, symbol N); format: in vivo, redroot pigweed (Amaranthus retroflexus); settings: amount of applied herbicide 320 g/ha
Summary of the method: as §1

chickweed [13] = test: Test Example 4: herbicidal effect by soil treatment (Table 19, symbol P); format: in vivo, common chickweed (Stellaria media); settings: amount of applied herbicide 320 g/ha
Summary of the method: as §1

redroot pigweed [14] = test: Test Example 5: herbicidal effect by foliage application, plastic box (Table 20, symbol N); format: in vivo, redroot pigweed (Amaranthus retroflexus); settings: foliage application, 320 g/ha, three weeks after application
Summary of the method: as §2

rice flat sedge = test: Test Example 3: herbicidal effect by foliage application, Wagner pot (Table 18, symbol E); format: in vivo, rice flat sedge (Cyperus iria); settings: 320 g/ha
Summary of the method: as §3

persian speedwell [15] = test: Test Example 4: herbicidal effect by soil treatment (Table 19, symbol R); format: in vivo, Persian speedwell (Veronica persica); settings: amount of applied herbicide 320 g/ha
Summary of the method: as §1

barnyard grass [16] = test: Test Example 5: herbicidal effect by foliage application, plastic box (Table 20, symbol H); format: in vivo, barnyard grass (Echinochloa crus-galli); settings: foliage application, 320 g/ha, three weeks after application
Summary of the method: as §2

lambsquarters [17] = test: Test Example 5: herbicidal effect by foliage application, plastic box (Table 20, symbol O); format: in vivo, lambsquarters (Chenopodium album); settings: foliage application, 320 g/ha, three weeks after application
Summary of the method: as §2

lambsquarters [18] = test: Test Example 4: herbicidal effect by soil treatment (Table 19, symbol O); format: in vivo, lambsquarters (Chenopodium album); settings: amount of applied herbicide 320 g/ha
Summary of the method: as §1

Chinese sprangletop = test: Test Example 3: herbicidal effect by foliage application, Wagner pot (Table 18, symbol D); format: in vivo, chinese sprangletop (Leptochloa chinensis); settings: 320 g/ha
Summary of the method: as §3

windgrass [19] = test: Test Example 4: herbicidal effect by soil treatment (Table 19, symbol L); format: in vivo, windgrass (Apera spica-venti); settings: amount of applied herbicide 320 g/ha
Summary of the method: as §1

windgrass [20] = test: Test Example 5: herbicidal effect by foliage application, plastic box (Table 20, symbol L); format: in vivo, windgrass (Apera spica-venti); settings: foliage application, 320 g/ha, three weeks after application
Summary of the method: as §2

blackgrass [21] = test: Test Example 5: herbicidal effect by foliage application, plastic box (Table 20, symbol J); format: in vivo, blackgrass (Alopecurus myosuroides); settings: foliage application, 320 g/ha, three weeks after application
Summary of the method: as §2

velvetleaf [22] = test: Test Example 4: herbicidal effect by soil treatment (Table 19, symbol M); format: in vivo, velvetleaf (Abutilon theophrasti); settings: amount of applied herbicide 320 g/ha
Summary of the method: as §1

wild oat [23] = test: Test Example 4: herbicidal effect by soil treatment (Table 19, symbol I); format: in vivo, wild oat (Avena fatua); settings: amount of applied herbicide 320 g/ha
Summary of the method: as §1

Italian ryegrass [24] = test: Test Example 4: herbicidal effect by soil treatment (Table 19, symbol K); format: in vivo, Italian ryegrass (Lolium multiflorum); settings: amount of applied herbicide 320 g/ha
Summary of the method: as §1

velvetleaf [25] = test: Test Example 5: herbicidal effect by foliage application, plastic box (Table 20, symbol M); format: in vivo, velvetleaf (Abutilon theophrasti); settings: foliage application, 320 g/ha, three weeks after application
Summary of the method: as §2

SMILES: CCCC(=O)Oc1c(C)nn(C)c(=O)c1-c1c(-c2ccc(OCC)nc2)sc2ccccc12 [1-077]
- herbicidal effect rating, J: blackgrass (blackgrass [1]): 0 (Herbicidal rate of 5% or less (almost no effect))
- herbicidal effect grade, R: persian speedwell (persian speedwell [2]): 5 (Herbicidal rate of 90% or more (almost completely withered))
- herbicidal effect grade, K: Italian ryegrass (Italian ryegrass [3]): 1 (Herbicidal rate of 5% or more and less than 20%)
- herbicidal effect grade, P: chickweed (chickweed [4]): 3 (Herbicidal rate of 40% or more and less than 70%)
- herbicidal effect on H (barnyard grass), rating 0-5 (barnyard grass [5]): 4 (Herbicidal rate of 70% or more and less than 90%)
- herbicidal effect grade, I: wild oat (wild oat [6]): 1 (Herbicidal rate of 5% or more and less than 20%)
- herbicidal effect grade, F: southern crabgrass (southern crabgrass [7]): 0 (Herbicidal rate of 5% or less (almost no effect))
- herbicidal effect rating, G: green foxtail (green foxtail [8]): 0 (Herbicidal rate of 5% or less (almost no effect))
- herbicidal effect grade, G: green foxtail (green foxtail [9]): 1 (Herbicidal rate of 5% or more and less than 20%)
- herbicidal effect rating, F: southern crabgrass (southern crabgrass [10]): 0 (Herbicidal rate of 5% or less (almost no effect))
- herbicidal effect rating, H: barnyard grass (barnyard grass [11]): 0 (Herbicidal rate of 5% or less (almost no effect))
- herbicidal effect rating, N: redroot pigweed (redroot pigweed [12]): 0 (Herbicidal rate of 5% or less (almost no effect))
- herbicidal effect rating, P: chickweed (chickweed [13]): 4 (Herbicidal rate of 70% or more and less than 90%)
- herbicidal effect grade, N: redroot pigweed (redroot pigweed [14]): 0 (Herbicidal rate of 5% or less (almost no effect))
- herbicidal effect on E (rice flat sedge), rating 0-5 (rice flat sedge): 4 (Herbicidal rate of 70% or more and less than 90%)
- herbicidal effect rating, R: persian speedwell (persian speedwell [15]): 4 (Herbicidal rate of 70% or more and less than 90%)
- herbicidal effect grade, H: barnyard grass (barnyard grass [16]): 2 (Herbicidal rate of 20% or more and less than 40%)
- herbicidal effect grade, O: lambsquarters (lambsquarters [17]): 0 (Herbicidal rate of 5% or less (almost no effect))
- herbicidal effect rating, O: lambsquarters (lambsquarters [18]): 0 (Herbicidal rate of 5% or less (almost no effect))
- herbicidal effect on D (Chinese sprangletop), rating 0-5 (Chinese sprangletop): 1 (Herbicidal rate of 5% or more and less than 20%)
- herbicidal effect rating, L: windgrass (windgrass [19]): 0 (Herbicidal rate of 5% or less (almost no effect))
- herbicidal effect grade, L: windgrass (windgrass [20]): 0 (Herbicidal rate of 5% or less (almost no effect))
- herbicidal effect grade, J: blackgrass (blackgrass [21]): 1 (Herbicidal rate of 5% or more and less than 20%)
- herbicidal effect rating, M: velvetleaf (velvetleaf [22]): 0 (Herbicidal rate of 5% or less (almost no effect))
- herbicidal effect rating, I: wild oat (wild oat [23]): 0 (Herbicidal rate of 5% or less (almost no effect))
- herbicidal effect rating, K: Italian ryegrass (Italian ryegrass [24]): 0 (Herbicidal rate of 5% or less (almost no effect))
- herbicidal effect grade, M: velvetleaf (velvetleaf [25]): 4 (Herbicidal rate of 70% or more and less than 90%)
